Patent publication US10183937B2, “1,3-thiazol-2-yl substituted benzamides” (BAYER AKTIENGESELLSCHAFT, priority 2014, dated 2019)

Assays:
[1] = clinical PhII trials; attributed to blockade of P2X2/3 channels; cited from earlier work
[2] = In vitro metabolic stability in liver microsomes (calculation of CL and Fmax); format: in vitro ADME, human; conditions: 1 μM, maximal oral bioavailability calculated from half-life
Protocol: In Vitro Metabolic Stability Assays Determination of In Vitro Metabolic Stability in Microsomes (Including Calculation of Hepatic In Vivo Blood Clearance (CL) and of Maximal Oral Bioavailability (Fmax))
The metabolic assay was started shortly afterwards by adding the test compound to the incubation at a final volume of 1 mL. Organic solvent in the incubations was limited to ≤0.01% dimethylsulfoxide (DMSO) and ≤1% acetonitrile. […] Samples were frozen at −20° C. overnight, subsequently centrifuged for 15 minutes at 3000 rpm and the supernatant was analyzed with an Agilent 1200 HPLC-system with LCMS/MS detection.
The half-life of a test compound was determined from the concentration-time plot. From the half-life (kel: slope of concentration-time plot; half-life=ln 2/kel) the intrinsic clearances were calculated. Together with the additional parameters liver blood flow, specific liver weight and microsomal protein content the hepatic in vivo blood clearance (CL) and the maximal oral bioavailability (Fmax) were calculated for the different species.
(§1) Metabolic instability is often the main clearance mechanism of xenobiotica leading to a high CL and low bioavailability which may eventually result in a short half-life and a low exposure after oral administration. Thus, reducing the susceptibility of metabolic degradation usually leads to a more favourable pharmacokinetic profile. When using liver microsomes as incubation matrix main phase I metabolic reactions, typically oxidoreductive reactions by cytochrome P450 enzymes and flavin mono-oxygenases (FMO) and hydrolytic reactions by esterases/amidases/epoxidhydrolases, are described. When the incubation of the test compound is performed in a hepatocyte matrix all potential hepatic metabolic processes (phase I and phase II) are covered.

rat hepatocytes = experiment: In vitro metabolic stability in rat hepatocytes; format: in vitro ADME, Han Wistar rats; conditions: 1 μM, maximal oral bioavailability calculated from half-life
Protocol: Determination of In Vitro Metabolic Stability in Rat Hepatocytes (Including Calculation of Hepatic In Vivo Blood Clearance (CL))
Hepatocytes from Han Wistar rats were isolated via a 2-step perfusion method. After perfusion, the liver was carefully removed from the rat: the liver capsule was opened and the hepatocytes were gently shaken out into a Petri dish with ice-cold Williams' medium E (WME). The resulting cell suspension was filtered through sterile gaze in 50 mL falcon tubes and centrifuged at 50×g for 3 min at room temperature. The cell pellet was resuspended in 30 mL WME and centrifuged through a Percoll® gradient for 2 times at 100×g. The hepatocytes were washed again with WME and resuspended in medium containing 5% FCS. Cell viability was determined by trypan blue exclusion. […] The test compound was added to a final concentration of 1 μM. […] Samples were frozen at −20° C. overnight, subsequently centrifuged for 15 minutes at 3000 rpm and the supernatant was analyzed with an Agilent 1200 HPLC-system with LCMS/MS detection.
The half-life of a test compound was determined from the concentration-time plot. From the half-life (kel: slope of concentration-time plot; half-life=ln 2/kel) the intrinsic clearances were calculated. Together with the additional parameters liver blood flow, amount of liver cells in vivo and in vitro.
as §1

[3] = Human liver cytosol stability assay; format: in vitro ADME; conditions: 4 h incubation
Protocol: Human Liver Cytosol Stability Assay
Method description: Human liver cytosol (pooled, >30 male and female donors) was incubated with individual test compounds in order to compare the extent of depletion of test compound and formation of the respective oxidised metabolite.
An incubation volume of 1000 μL was used. The test compound was added from a stock solution in acetonitrile at 1 or 10 μM concentration in the incubation. Incubations were performed at 37° C. Reactions were stopped at 0 h and 4 h after incubation by addition of 100 μL acetonitrile to 250 μL of incubation mixture. Precipitated proteins were removed by centrifugation at approximately 3000 rpm. The supernatants were stored at approximately −20° C. until they were analysed. […]
Data analysis: The depletion of the test compound and formation of the corresponding metabolites were determined by decrease or increase of the corresponding peak area in the chromatogram after UV detection at approximately 300 nm 4 h after incubation compared to that at 0 h after incubation. […]

vaginal hyperalgesia = experiment: Rat dyspareunia model (visceromotor response to vaginal distension); format: in vivo, Sprague Dawley rats; conditions: 15 mg/kg oral b.i.d. during 2 weeks
From the text: The visceromotor response (VMR) to vaginal distension was used in conscious animals as an objective measure of vaginal sensitivity. […] To measure VMR response, 2 Teflon-coated wire electrodes were sutured in the external oblique abdominal muscle, and tunneled subcutaneously to be exteriorized at the base of the neck for future access. On the day of VMR assessment, a lubricated small balloon (1 cm length) was inserted into the mid-vaginal canal. The balloon catheter was secured to the base of the tail and connected to a volume controller/timing device (infusion pump) for balloon distension. The vaginal balloon was inflated to ramp intensities of distension (0.05 ml increments every 20 sec.) to a maximal volume of 0.8 ml. The electrodes were connected to an amplifier (Animal Bio Amp, ADInstruments), and the abdominal electromyographic signal was recorded using a data acquisition system (PowerLab, ADInstruments) for off-line analysis using LabChart version 7. The number of abdominal muscle contractions was counted manually for each 0.1 ml distension step, as an index of vaginal pain. […] All data were expressed as mean±standard deviation (s.d.), for the number (n) of measured rats per group. […] Planned comparison of means (matched-volume versus vehicle) was performed using a Bonferroni post hoc test, provided that a main effect was detected. […]

Compound	Human liver microsome Fmax [2] [%]	Rat hepatocyte Fmax (rat hepatocytes) [%]	Test compound turnover after 4 h [3] [%]	taste side effect in treated subjects [1]	Vaginal hyperalgesia compared to vehicle-treated animals (vaginal hyperalgesia)
COc1cc(C(C)C)c(Oc2cnc(N)nc2N)cc1S(N)(=O)=O [AF-219]				taste disturbances	
CCc1cnc(-c2cc(OC[C@H]3CN(C)CCO3)cc(C(=O)N[C@H](C)c3ccc(C(F)(F)F)nn3)c2)s1 [Example 419, 3-(5-ethyl-1,3-thiazol-2-yl)-5-{[(2R)-4-methyl-morpholin-2-yl]methoxy}-N-{(1R)-1-[6-(trifluoromethyl)pyridazin-3-yl]ethyl} benzamide]	74	51			
Cc1cnc(-c2cc(O[C@@H]3CCOC3)cc(C(=O)N[C@H](C)c3cnc(C(F)(F)F)nc3)c2)s1 [Example 11, 3-(5-Methyl-1,3-thiazol-2-yl)-5-[(3R)-tetrahydrofuran-3-yloxy]-N-{(1R)-1-[2-(trifluoromethyl)pyrimidin-5-yl]ethyl}benzamide]	57	52	0.9		decreased vaginal hyperalgesia compared to vehicle-treated animals
Cc1cnc(-c2cc(O[C@H]3CCOC3)cc(C(=O)N[C@H](C)c3cnc(C(F)(F)F)nc3)c2)s1 [Example 26, 3-(5-Methyl-1,3-thiazol-2-yl)-5-[(3S)-tetrahydrofuran-3-yloxy]-N-{(1R)-1-[2-(trifluoromethyl)pyrimidin-5-yl]ethyl}benzamide]	67	56	0.9		

Second part, led by results:

Human liver microsome Fmax [2] [%]	Rat hepatocyte Fmax (rat hepatocytes) [%]	Test compound turnover after 4 h [3] [%]	Compound	taste side effect in treated subjects [1]	Vaginal hyperalgesia compared to vehicle-treated animals (vaginal hyperalgesia)
100	53		Cc1cnc(-c2cc(OC(C)C(C)O)cc(C(=O)N[C@H](C)c3cnc(C(F)(F)F)nc3)c2)s1 (single isomer, unassigned) [Example 163]		
94	52		Cc1cnc(-c2cc(OC(C)C(C)O)cc(C(=O)N[C@H](C)c3cnc(C(F)(F)F)nc3)c2)s1 (single isomer, unassigned) [Example 339]		
90	64		Cc1cnc(-c2cc(OC(C)C(C)O)cc(C(=O)N[C@H](C)c3cnc(C(F)(F)F)nc3)c2)s1 (single isomer, unassigned) [Example 340]		
74	43		Cc1cnc(-c2cc(OC(C)C(C)O)cc(C(=O)N[C@H](C)c3ccc(C(F)(F)F)nn3)c2)s1 (single isomer, unassigned) [Example 183]		
